From paper PMC7782793, “Hydroxamic acid-modified peptide microarrays for profiling isozyme-selective interactions and inhibition of histone deacetylases” (Nature Communications, 2021)
Values joined by “and” are separate entries in the source; they are usually repeats but may differ in a detail not shown here. Equal values may be shown once. Marks after values point to notes of the source that are not given here. Non-standard residues stand in square brackets, D forms with d. Residues, ends and D or L forms follow the SMILES beside them. *: point of attachment. Asu = N[C@@H](CCCCCC(=O)O)C(=O)O; NHOH = ON*

Key:
HDAC6 = target: T1, HDAC6 (Homo sapiens, UniProt Q9UBN7); assay: HDAC inhibition assay (fluorogenic, Ac-Leu-Gly-Lys(Ac)-AMC); format: biochemical; conditions: HDAC6, replicates
T1 construct: HDAC6 (full length, BPS Bioscience, cat. #: 50056); purchased BPS Bioscience 50056
T1 sequence (Q9UBN7 1-1215): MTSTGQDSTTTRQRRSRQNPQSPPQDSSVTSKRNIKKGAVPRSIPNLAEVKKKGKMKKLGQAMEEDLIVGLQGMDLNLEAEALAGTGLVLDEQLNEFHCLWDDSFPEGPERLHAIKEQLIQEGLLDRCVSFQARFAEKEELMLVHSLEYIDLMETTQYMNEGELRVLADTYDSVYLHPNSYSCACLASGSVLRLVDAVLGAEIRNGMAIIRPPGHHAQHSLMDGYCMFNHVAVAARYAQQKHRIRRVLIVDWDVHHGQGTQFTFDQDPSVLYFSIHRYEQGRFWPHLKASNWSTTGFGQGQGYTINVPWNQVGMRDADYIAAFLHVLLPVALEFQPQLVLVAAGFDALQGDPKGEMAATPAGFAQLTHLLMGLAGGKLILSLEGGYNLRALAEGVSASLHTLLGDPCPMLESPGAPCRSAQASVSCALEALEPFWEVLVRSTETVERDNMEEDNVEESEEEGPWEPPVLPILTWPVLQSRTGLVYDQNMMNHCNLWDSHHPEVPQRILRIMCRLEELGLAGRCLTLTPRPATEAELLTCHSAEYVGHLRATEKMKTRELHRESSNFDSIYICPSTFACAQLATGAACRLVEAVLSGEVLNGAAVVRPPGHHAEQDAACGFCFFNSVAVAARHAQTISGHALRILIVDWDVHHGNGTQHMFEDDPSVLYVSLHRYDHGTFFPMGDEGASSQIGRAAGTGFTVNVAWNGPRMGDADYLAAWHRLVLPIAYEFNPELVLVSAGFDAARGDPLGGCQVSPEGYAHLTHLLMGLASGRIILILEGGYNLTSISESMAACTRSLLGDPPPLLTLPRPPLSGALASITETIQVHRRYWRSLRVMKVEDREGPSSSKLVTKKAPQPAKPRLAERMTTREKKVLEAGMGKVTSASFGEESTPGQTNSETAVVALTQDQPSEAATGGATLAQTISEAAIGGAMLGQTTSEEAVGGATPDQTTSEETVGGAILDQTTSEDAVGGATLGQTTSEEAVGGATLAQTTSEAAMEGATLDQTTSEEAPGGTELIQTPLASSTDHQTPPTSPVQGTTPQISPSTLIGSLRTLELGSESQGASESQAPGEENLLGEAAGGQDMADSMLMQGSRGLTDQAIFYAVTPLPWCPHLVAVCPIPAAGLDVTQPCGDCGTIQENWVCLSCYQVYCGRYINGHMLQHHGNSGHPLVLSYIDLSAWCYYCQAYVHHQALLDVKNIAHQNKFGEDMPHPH

HDAC8 [1] = target: T2, HDAC8 (Homo sapiens, UniProt Q9BY41); assay: Recombinant HDAC µSPOT microarray binding assay;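 note: peptide µSPOT slides incubated with varying HDAC enzyme concentrations, imaged signal intensity fitted by four-parameter variable-slope regression, EC50 is enzyme concentration giving half-maximal binding, pH 7.4 HEPES buffer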
T2 construct: HDAC8 (full length, C-terminal His tag, BPS Bioscience, cat. #: 50008); purchased BPS Bioscience 50008
T2 sequence (Q9BY41 1-377): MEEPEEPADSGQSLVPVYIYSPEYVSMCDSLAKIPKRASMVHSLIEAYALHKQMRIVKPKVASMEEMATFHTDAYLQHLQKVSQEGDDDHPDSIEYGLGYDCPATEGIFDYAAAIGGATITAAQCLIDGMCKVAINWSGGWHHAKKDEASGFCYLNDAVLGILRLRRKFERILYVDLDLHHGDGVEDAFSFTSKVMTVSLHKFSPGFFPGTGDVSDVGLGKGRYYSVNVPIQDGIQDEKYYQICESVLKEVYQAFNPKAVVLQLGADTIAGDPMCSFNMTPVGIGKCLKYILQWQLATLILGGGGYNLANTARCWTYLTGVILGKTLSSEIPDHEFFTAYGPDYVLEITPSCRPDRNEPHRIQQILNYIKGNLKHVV
Method: Experiments were performed twice, data were obtained with Array Analyze software (Active Motif), and data analysis and representation were performed with the GraphPad Prism 7 software. Outliers were curated manually and data were fitted to nonlinear regression [log(agonist) vs. response—variable slope (four parameters)]. […] Non-sigmoidal curves were denoted as not determined (N.D.) The pEC50 values were determined as the concentration of HDAC enzyme required for half-maximal binding signal.

HDAC8 [2] = target: T2, HDAC8; assay: HDAC inhibition assay (fluorogenic, Ac-Leu-Gly-Lys(Tfa)-AMC); format: biochemical; conditions: for HDAC8 dose-response data (relative enzyme activity, replicate values), Fig. 6 + S. Fig. 10: two replicate columns per inhibitor; for HDAC8 dose-response data (relative enzyme activity), Fig. 6 + S. Fig. 10: duplicate columns
HDAC1 = target: T3, HDAC1 (Homo sapiens, UniProt Q13547); assay: Recombinant HDAC µSPOT microarray binding assay;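 note: slides with spotted peptides incubated with six HDAC concentrations in HEPES buffer pH 7.4, spot intensities fitted by four-parameter logistic, EC50 as enzyme concentration giving half-maximal binding signal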
T3 construct: HDAC1 (full length, C-terminal His tag, C-terminal FLAG tag, BPS Bioscience, cat. #: 50051); FLAG (C); purchased BPS Bioscience 50051
T3 sequence (Q13547 whole entry): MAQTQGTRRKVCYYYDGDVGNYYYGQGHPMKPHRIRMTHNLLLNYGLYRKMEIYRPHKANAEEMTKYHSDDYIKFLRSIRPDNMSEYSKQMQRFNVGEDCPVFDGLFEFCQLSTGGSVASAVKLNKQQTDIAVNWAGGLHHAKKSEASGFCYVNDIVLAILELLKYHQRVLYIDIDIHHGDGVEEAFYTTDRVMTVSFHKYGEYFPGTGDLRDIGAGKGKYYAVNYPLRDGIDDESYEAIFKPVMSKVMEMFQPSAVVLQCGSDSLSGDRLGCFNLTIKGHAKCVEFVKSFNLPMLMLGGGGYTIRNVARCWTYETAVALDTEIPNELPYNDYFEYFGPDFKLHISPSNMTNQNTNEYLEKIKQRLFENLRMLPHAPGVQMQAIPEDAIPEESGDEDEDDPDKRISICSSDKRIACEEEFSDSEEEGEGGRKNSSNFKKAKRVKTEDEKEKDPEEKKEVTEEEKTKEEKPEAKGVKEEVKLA

HDAC3/NCoR2 = target: T4, HDAC3/NCoR2 (Homo sapiens, UniProt O15379); assay: Recombinant HDAC µSPOT microarray binding assay;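 note: peptide spots on cellulose slides incubated with rising HDAC enzyme concentrations, imaged together, four-parameter logistic fit, EC50 is enzyme concentration giving half-maximal binding signal, two experiments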
T4 construct: HDAC3/NCoR2 (full length, C-terminal His tag, NCoR2 N-terminal GST tag); purchased BPS Bioscience 50003
T4 sequence (O15379 whole entry): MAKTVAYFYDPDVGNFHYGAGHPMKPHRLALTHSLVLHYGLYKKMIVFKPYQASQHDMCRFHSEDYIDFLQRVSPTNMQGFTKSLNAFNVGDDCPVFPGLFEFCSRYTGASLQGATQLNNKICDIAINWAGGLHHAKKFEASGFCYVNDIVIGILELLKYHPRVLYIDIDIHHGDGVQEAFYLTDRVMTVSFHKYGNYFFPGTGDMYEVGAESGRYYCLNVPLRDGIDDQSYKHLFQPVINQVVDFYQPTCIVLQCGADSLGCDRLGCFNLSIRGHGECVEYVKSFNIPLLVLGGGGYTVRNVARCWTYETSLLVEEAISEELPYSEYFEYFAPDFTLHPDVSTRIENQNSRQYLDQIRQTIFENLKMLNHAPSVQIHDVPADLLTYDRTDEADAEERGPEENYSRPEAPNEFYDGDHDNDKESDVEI
T4 sequence (Q9Y618 389-480 partner limits assumed): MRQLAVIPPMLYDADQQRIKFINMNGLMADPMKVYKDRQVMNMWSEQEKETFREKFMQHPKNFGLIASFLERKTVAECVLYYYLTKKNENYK

HDAC2 = target: T5, HDAC2 (Homo sapiens, UniProt Q92769); assay: HDAC inhibition assay (fluorogenic, Ac-Leu-Gly-Lys(Ac)-AMC); format: biochemical; conditions: for HDAC2 dose-response data (relative enzyme activity), Fig. 6 + S. Fig. 10: duplicate columns
T5 construct: HDAC2 (full length, C-terminal His tag, BPS Bioscience, cat. #: 50002); purchased BPS Bioscience 50002
T5 sequence (Q92769 whole entry): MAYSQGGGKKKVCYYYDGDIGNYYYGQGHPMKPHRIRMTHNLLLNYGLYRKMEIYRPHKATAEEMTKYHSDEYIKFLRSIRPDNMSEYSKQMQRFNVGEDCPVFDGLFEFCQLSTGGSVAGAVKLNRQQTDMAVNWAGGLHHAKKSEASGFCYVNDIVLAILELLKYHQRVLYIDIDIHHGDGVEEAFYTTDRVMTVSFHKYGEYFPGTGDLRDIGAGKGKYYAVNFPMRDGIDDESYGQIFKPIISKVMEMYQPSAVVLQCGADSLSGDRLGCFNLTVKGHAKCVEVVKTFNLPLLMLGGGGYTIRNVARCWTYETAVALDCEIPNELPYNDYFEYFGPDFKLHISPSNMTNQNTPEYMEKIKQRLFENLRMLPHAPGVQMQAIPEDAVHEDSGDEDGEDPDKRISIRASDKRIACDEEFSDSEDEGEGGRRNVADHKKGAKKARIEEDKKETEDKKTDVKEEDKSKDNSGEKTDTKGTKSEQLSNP

CC[C@H](C)[C@H](NC(=O)[C@@H](NC(=O)[C@H](CO)NC(=O)[C@H](CCCNC(=N)N)NC(=O)[C@H](CCCCCC(=O)NO)NC(=O)[C@H](CC(N)=O)NC(=O)[C@H](Cc1ccc(O)cc1)NC(=O)[C@H](Cc1c[nH]cn1)NC(=O)[C@H](C)NC(=O)[C@H](CC(C)C)NC(=O)[C@H](CCCNC(=N)N)NC(=O)[C@H](CO)NC(=O)[C@H](C)NC(=O)[C@H](CCC(=O)O)NC(C)=O)[C@@H](C)O)C(=O)N[C@H](C(=O)N[C@@H](CO)C(=O)N[C@@H](Cc1c[nH]c2ccccc12)C(N)=O)[C@@H](C)O [11a] (Ac-EASRLAHYN[Asu](NHOH)RSTITSW-NH2)
residual enzymatic activity relative to control wells (HDAC6; log[inhibitor(M)] -6.39794): 10.5662 and 11.8653 | residual enzymatic activity relative to control wells (HDAC6; log[inhibitor(M)] -7.09691): 30.8137 and 34.4652 | residual enzymatic activity relative to control wells (HDAC6; log[inhibitor(M)] -7.79588): 67.8407 and 69.7758 | residual enzymatic activity relative to control wells (HDAC6; log[inhibitor(M)] -8.49485): 85.433 and 85.1351 | residual enzymatic activity relative to control wells (HDAC6; log[inhibitor(M)] -9.19382): 83.1934 and 87.9013 | residual enzymatic activity relative to control wells (HDAC6; log[inhibitor(M)] -9.89279): 78.0457 and 86.7533 | residual enzymatic activity relative to control wells (HDAC6; log[inhibitor(M)] -10.585): 79.87 and 88.4822 | EC50 (HDAC8 [1]): > 25.1 nM | Ki (HDAC8 [2]): 216 ± 1 nM | HDAC8 dose-response data (relative enzyme activity, replicate values), Fig. 6 + S. Fig. 10 (HDAC8 [2]; Inhibitor conc [M] -8.49485 (log)): 96.1111 and 96.5276 | HDAC8 dose-response data (relative enzyme activity, replicate values), Fig. 6 + S. Fig. 10 (HDAC8 [2]; Inhibitor conc [M] -9.19382 (log)): 96.7641 and 98.5453 | HDAC8 dose-response data (relative enzyme activity, replicate values), Fig. 6 + S. Fig. 10 (HDAC8 [2]; Inhibitor conc [M] given as -7.09691 (log)): 74.7826 and 76.7416 | HDAC8 dose-response data (relative enzyme activity, replicate values), Fig. 6 + S. Fig. 10 (HDAC8 [2]; Inhibitor conc [M] given as -7.79588 (log)): 92.4501 and 93.9678 | HDAC8 dose-response data (relative enzyme activity, replicate values), Fig. 6 + S. Fig. 10 (HDAC8 [2]; Inhibitor conc [M] given as -9.89279 (log)): 96.0276 and 96.961 | HDAC8 dose-response data (relative enzyme activity, replicate values), Fig. 6 + S. Fig. 10 (HDAC8 [2]; Inhibitor conc [M] given as -10.585 (log)): 97,4443859* and 98,1506198* | HDAC8 dose-response data (relative enzyme activity), Fig. 6 + S. Fig. 10 (HDAC8 [2]; Inhibitor conc [M] -4.30103): 1.735 and 1.62 | HDAC8 dose-response data (relative enzyme activity), Fig. 6 + S. Fig. 10 (HDAC8 [2]; Inhibitor conc [M] -5): 6.862 and 6.863 | HDAC8 dose-response data (relative enzyme activity), Fig. 6 + S. Fig. 10 (HDAC8 [2]; Inhibitor conc [M] -5.69897): 19.3274 and 19.565 | HDAC8 dose-response data (relative enzyme activity), Fig. 6 + S. Fig. 10 (HDAC8 [2]; Inhibitor conc [M] -6.39794): 44.2904 and 45.2063 | EC50 (HDAC1): > 25.1 nM | EC50 (HDAC3/NCoR2): 2.82 nM | HDAC2 dose-response data (relative enzyme activity), Fig. 6 + S. Fig. 10 (HDAC2; log[inhibitor(M)] -5): 1.895 and 2.051 | HDAC2 dose-response data (relative enzyme activity), Fig. 6 + S. Fig. 10 (HDAC2; log[inhibitor(M)] -5.69897): 7.362 and 7.275 | HDAC2 dose-response data (relative enzyme activity), Fig. 6 + S. Fig. 10 (HDAC2; log[inhibitor(M)] -7.79588): 79.8909 and 86.975 | HDAC2 dose-response data (relative enzyme activity), Fig. 6 + S. Fig. 10 (HDAC2; log[inhibitor(M)] -10,5850266520292*, whole line marked with asterisks): 93,4642959* and 101,701404* | Ki (HDAC2; resynthesized peptide in solution, Cheng-Prusoff, n = 2): 13.8 ± 0.1 nM
